“Also recorded” adds a separate entry of the source. Like-named read-outs stand apart in the source and are kept apart here.
Columns and labels:
[1] = test system: TOM20-ubiquitylation in control (AHN) iPSC-derived dopaminergic neurons; experiment: TOM20-ubiquitylation in control iPSC-derived dopaminergic neurons; type: cell-based, human; settings: no exogenous stimuli
From the text: Donor-derived DopaNeuron lines were generated from source material provided by the Parkinson’s Progression Markers Initiative (PPMI) through The Michael J. Fox Foundation. Human iPS cells-derived DopaNeurons were purchased from Fujifilm/Cellular Dynamics. Apparently healthy normal (AHN) (catalog # R1088) or alpha-synuclein A53T mutated (A53T) (catalog # R1109) iPSC-derived dopaminergic neurons (dopaneurons) were thawed from liquid nitrogen. 400 000 viable (counted using a cell counter) dopaneurons […] were plated per well into 24 well plates on day 0 in complete maintenance medium (CMM).
A half-medium change was performed on the cells on Day 3 with CMM. On Day 5 cells were half-medium changed with complete brainphys medium. […] Cells were given half medium changes with or without compounds (depending on whether treatments with compound had started) every 2-3 days.

SH-SY5Y mito-QC cells = experiment: Mitophagy (mito-QC) live imaging in SH-SY5Y cells; type: cell-based, human
Protocol: SH-SY5Y cells stably expressing mCherry-GFP-Fis1101-152 reporter (SH-SY5Y mito-QC) kindly provided by Dr I Ganley (MRC PPU, Dundee) were cultured in DMEM/F12 media supplemented with 1% L-glutamine, 1% penicillin/streptomycin, 1% non-essential amino acids, 10% fetal bovine serum at 37 °C and 5% CO2.
For inhibitor studies, live imaging was applied to mitophagy puncta analysis in SH-SY5Y mito-QC cells. SH-SY5Y mito-QC cells were plated overnight at 7000 cells/well into black walled PhenoPlate 96-well microplates in DMEM/F-12 (phenol red free) supplemented as above. SH-SY5Y mito-QC cells were incubated with NucBlue™ live stain for 20 mins then washed. […] Cells were live imaged using the Operetta CLS Type HH1600 (optical mode set to confocal, 40x water objective) at timepoints 0 h, 4 h, 20 h, 24 h, 48 h and 72 h. Images were acquired using the following channel settings: mCherry; excitation 530/60 nm, emission 570/650 nm, GFP; excitation 460/90 nm, emission 500/650 nm, Hoechst; excitation 355/85 nm, emission 430/500 nm. For all conditions tested, quantification of mitophagy was performed from three independent experiments (with three technical replicates capturing 11 fields of views, 6 z-stacks).
Image Quantification: For analysis of mitophagy, images were processed with the Harmony analysis software using the “SH-SY5Y-mito-QC_analysis 2” sequence. For mitolysosome identification the following analysis steps were performed: (1) Identification of the cell nuclei using Hoechst staining, (2) Identification of the cell cytoplasm using a deep phase contrast (DPC) image, (3) Identification of the mitochondrial network, using the Ser-Bright function on the mCherry channel within the cytoplasm, (4) Mitochondrial network partitioning using the FindSpots function, (5) Identification of mitophagic puncta with the partitioned mitochondrial network, using an mCherry:GFP ratio threshold of mean >+3 standard deviations from the 24 h DMSO only treated cells.

USP2 = USP2 (Homo sapiens, UniProt O75604); experiment: DUB/cathepsin selectivity biochemical assay
Sequence of USP2 (O75604 whole entry, species assumed): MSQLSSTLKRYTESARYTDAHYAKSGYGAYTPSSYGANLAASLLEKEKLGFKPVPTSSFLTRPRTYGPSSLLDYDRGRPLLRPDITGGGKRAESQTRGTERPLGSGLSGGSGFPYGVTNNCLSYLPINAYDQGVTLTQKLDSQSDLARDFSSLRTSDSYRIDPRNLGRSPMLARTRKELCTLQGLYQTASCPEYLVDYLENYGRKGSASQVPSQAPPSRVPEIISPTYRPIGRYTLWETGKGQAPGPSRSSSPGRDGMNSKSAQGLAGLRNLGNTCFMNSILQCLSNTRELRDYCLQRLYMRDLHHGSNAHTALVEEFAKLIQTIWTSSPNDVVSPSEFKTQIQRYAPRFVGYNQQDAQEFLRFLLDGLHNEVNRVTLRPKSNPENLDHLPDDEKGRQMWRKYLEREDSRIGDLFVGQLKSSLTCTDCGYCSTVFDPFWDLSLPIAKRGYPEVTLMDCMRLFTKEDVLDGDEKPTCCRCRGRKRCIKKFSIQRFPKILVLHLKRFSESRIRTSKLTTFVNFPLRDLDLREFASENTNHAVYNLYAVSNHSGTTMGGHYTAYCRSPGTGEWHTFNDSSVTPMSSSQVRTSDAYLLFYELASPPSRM

USP6 = USP6 (Homo sapiens, UniProt P35125); experiment: DUB/cathepsin selectivity biochemical assay
USP28 = USP28 (Homo sapiens, UniProt Q96RU2); experiment: DUB/cathepsin selectivity biochemical assay
Sequence of USP28 (Q96RU2 whole entry, species assumed): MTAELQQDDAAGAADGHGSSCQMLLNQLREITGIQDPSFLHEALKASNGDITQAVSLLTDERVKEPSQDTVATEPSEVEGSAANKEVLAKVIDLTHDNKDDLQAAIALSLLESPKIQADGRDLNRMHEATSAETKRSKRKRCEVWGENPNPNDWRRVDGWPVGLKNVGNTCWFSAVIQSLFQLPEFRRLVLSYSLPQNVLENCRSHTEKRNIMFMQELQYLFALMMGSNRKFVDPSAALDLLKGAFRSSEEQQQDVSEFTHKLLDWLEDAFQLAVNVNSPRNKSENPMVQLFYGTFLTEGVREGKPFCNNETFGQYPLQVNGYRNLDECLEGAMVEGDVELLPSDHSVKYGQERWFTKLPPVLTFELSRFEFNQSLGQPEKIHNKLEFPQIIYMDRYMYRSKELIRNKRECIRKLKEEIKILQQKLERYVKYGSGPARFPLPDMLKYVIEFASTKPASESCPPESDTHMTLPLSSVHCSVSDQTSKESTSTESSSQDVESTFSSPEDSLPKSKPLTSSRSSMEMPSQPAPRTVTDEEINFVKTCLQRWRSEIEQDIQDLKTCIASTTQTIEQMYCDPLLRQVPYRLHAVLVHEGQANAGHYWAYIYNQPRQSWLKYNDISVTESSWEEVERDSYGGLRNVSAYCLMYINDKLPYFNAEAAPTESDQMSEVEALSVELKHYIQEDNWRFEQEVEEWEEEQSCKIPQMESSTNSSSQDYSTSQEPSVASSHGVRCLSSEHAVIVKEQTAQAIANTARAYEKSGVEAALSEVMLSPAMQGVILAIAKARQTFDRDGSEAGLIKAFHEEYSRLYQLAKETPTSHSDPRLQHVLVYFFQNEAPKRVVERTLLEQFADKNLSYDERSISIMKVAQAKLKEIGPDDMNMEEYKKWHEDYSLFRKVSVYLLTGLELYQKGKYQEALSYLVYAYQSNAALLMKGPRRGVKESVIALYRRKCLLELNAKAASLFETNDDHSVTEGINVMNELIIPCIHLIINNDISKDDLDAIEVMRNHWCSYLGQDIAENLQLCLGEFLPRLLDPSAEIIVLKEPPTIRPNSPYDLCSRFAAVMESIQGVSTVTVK

USP22 = USP22 (Homo sapiens, UniProt Q9UPT9); experiment: DUB/cathepsin selectivity biochemical assay
USP36 CD = biological target: T1, USP36 CD (Homo sapiens, UniProt Q9P275); experiment: DUB/cathepsin selectivity biochemical assay
T1 construct: USP36 CD
T1 sequence (Q9P275 122-423 limits assumed): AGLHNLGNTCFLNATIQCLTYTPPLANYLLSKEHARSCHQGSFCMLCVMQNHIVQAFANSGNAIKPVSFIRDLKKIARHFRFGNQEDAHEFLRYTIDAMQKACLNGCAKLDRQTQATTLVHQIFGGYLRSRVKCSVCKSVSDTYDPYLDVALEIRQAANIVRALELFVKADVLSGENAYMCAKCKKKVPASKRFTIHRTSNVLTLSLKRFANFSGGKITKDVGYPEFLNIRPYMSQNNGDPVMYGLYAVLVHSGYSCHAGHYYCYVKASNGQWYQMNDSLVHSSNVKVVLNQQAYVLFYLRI

USP19 = USP19 (Homo sapiens, UniProt O94966); experiment: DUB/cathepsin selectivity biochemical assay
USP11 = USP11 (Homo sapiens, UniProt P51784); experiment: DUB/cathepsin selectivity biochemical assay
USP8 = USP8 (Homo sapiens, UniProt P40818); experiment: DUB/cathepsin selectivity biochemical assay
USPL1 = USPL1 (Homo sapiens, UniProt Q5W0Q7); experiment: DUB/cathepsin selectivity biochemical assay
MINDY3 = MINDY3 (Homo sapiens, UniProt Q9H8M7); experiment: DUB/cathepsin selectivity biochemical assay
USP24 = USP24 (Homo sapiens, UniProt Q9UPU5); experiment: DUB/cathepsin selectivity biochemical assay
VCPIP FL = biological target: T2, VCPIP FL (Homo sapiens, UniProt Q96JH7); experiment: DUB/cathepsin selectivity biochemical assay
T2 construct: VCPIP FL

CYLD = CYLD (Homo sapiens, UniProt Q9NQC7); experiment: DUB/cathepsin selectivity biochemical assay
Sequence of CYLD (Q9NQC7 whole entry, species assumed): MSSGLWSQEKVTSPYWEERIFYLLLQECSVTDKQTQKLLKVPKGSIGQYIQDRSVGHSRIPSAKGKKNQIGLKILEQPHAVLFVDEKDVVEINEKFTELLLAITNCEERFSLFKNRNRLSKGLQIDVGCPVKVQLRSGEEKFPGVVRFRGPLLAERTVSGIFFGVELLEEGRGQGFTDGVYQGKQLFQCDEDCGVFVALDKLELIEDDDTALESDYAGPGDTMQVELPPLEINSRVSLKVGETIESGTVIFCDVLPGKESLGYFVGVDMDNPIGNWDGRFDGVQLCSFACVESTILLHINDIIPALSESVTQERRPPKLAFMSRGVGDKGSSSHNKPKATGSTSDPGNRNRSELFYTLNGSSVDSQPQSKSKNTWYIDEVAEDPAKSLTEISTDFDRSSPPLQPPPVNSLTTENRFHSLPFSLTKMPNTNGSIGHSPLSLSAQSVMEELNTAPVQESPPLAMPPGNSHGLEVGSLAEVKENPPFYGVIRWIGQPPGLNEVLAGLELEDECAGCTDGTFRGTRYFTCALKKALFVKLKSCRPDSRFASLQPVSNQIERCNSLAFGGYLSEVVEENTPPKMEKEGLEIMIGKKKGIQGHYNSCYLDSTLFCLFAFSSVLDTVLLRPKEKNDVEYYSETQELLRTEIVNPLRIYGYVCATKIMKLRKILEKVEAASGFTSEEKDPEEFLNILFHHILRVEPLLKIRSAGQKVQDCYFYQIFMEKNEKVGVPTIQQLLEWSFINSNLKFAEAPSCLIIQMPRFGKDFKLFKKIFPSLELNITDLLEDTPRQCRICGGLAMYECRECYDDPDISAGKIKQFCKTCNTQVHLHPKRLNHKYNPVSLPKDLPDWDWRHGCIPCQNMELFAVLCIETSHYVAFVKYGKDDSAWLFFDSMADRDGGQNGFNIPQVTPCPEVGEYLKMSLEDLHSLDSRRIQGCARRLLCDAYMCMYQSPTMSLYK

SENP2 CD = biological target: T3, SENP2 CD (Homo sapiens, UniProt Q9HC62); experiment: DUB/cathepsin selectivity biochemical assay
T3 construct: SENP2 CD
T3 sequence (Q9HC62 396-560 limits assumed): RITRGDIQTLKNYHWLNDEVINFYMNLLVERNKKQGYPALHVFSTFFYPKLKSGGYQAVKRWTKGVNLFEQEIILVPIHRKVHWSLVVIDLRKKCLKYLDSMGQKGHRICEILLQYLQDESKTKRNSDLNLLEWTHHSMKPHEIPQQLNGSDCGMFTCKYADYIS

UchL5 = UchL5 (Homo sapiens, UniProt Q9Y5K5); experiment: DUB/cathepsin selectivity biochemical assay
Sequence of UchL5 (Q9Y5K5 whole entry, species assumed): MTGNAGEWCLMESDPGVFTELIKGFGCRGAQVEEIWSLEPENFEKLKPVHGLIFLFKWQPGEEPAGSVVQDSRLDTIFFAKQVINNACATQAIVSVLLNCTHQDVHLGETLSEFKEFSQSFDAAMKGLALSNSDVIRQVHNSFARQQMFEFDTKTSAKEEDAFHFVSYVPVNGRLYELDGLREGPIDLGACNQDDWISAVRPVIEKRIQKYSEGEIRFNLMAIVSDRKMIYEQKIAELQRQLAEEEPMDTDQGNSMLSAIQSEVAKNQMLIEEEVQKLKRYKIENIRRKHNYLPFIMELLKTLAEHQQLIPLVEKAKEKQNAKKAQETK

USP4 = USP4 (Homo sapiens, UniProt Q13107); experiment: DUB/cathepsin selectivity biochemical assay
USP35 = USP35 (Homo sapiens, UniProt Q9P2H5); experiment: DUB/cathepsin selectivity biochemical assay
USP46/UAF1 = USP46/UAF1 (Homo sapiens, UniProt P62068); experiment: DUB/cathepsin selectivity biochemical assay
Sequence of USP46/UAF1 (P62068 whole entry, species assumed): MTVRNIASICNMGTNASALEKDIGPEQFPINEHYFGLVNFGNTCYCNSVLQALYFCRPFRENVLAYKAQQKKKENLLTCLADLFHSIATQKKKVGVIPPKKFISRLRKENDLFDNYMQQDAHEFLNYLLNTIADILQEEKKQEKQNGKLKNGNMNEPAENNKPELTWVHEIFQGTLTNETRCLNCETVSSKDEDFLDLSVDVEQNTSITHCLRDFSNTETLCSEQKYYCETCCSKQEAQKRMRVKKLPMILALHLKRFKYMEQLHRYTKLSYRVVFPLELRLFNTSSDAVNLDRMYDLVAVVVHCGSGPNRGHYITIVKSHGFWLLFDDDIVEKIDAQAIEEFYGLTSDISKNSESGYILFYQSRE
Sequence of USP46/UAF1 (Q8TAF3 whole entry partner, species assumed): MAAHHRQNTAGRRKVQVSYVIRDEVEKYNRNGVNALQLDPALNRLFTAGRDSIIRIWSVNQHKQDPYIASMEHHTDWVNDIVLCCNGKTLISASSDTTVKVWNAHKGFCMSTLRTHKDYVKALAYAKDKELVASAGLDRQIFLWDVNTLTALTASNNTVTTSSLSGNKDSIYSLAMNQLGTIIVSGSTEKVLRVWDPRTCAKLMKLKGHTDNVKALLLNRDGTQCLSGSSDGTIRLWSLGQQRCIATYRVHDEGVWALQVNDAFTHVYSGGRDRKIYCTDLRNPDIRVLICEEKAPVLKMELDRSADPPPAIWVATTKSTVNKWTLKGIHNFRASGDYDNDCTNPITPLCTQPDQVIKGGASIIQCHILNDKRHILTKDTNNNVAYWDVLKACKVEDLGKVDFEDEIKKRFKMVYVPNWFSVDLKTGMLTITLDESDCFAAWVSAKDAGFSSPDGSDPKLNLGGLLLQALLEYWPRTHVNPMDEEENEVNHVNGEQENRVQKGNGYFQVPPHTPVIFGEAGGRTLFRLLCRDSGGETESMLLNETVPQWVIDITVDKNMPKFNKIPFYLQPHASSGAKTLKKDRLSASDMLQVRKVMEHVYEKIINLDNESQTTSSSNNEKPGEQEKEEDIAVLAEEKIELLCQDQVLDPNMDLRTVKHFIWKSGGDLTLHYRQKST

SENP1 CD = biological target: T4, SENP1 CD (Homo sapiens, UniProt Q9P0U3); experiment: DUB/cathepsin selectivity biochemical assay
T4 construct: SENP1 CD
T4 sequence (Q9P0U3 450-613 limits assumed): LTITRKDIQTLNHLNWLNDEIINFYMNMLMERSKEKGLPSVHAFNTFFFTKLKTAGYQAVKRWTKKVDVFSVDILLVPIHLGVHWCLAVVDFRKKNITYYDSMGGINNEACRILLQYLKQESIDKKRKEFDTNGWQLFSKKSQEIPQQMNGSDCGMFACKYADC

OTUB2 = OTUB2 (Homo sapiens, UniProt Q96DC9); experiment: DUB/cathepsin selectivity biochemical assay
MINDY2 = MINDY2 (Homo sapiens, UniProt Q8NBR6); experiment: DUB/cathepsin selectivity biochemical assay
OTUD3 CD = biological target: T5, OTUD3 CD (Homo sapiens, UniProt Q5T2D3); experiment: DUB/cathepsin selectivity biochemical assay
T5 construct: OTUD3 CD
T5 sequence (Q5T2D3 65-189 limits assumed): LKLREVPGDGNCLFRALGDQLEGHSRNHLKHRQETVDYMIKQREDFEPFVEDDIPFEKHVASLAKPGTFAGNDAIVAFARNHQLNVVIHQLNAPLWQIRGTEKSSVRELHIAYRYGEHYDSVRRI

Trabid = Trabid (Homo sapiens, UniProt Q9UGI0); experiment: DUB/cathepsin selectivity biochemical assay
SENP6 = SENP6 (Homo sapiens, UniProt Q9GZR1); experiment: DUB/cathepsin selectivity biochemical assay

C[C@@H]1[C@H]2CCN(C(=O)c3ncc(-c4ccnc(C#N)c4)o3)[C@H]2CN1C#N [MTX115325]
TOM20-ubiquitylation ([1]; control background, 24 h, 1 µM): increased TOM20-ubiquitylation | TOM20-ubiquitylation ([1]; control neurons, 7 days at 10 nM, 100 nM or 1 µM): caused the upregulation of TOM20-ubiquitylation | Increase in mitophagy (SH-SY5Y mito-QC cells; 37 nM, 72 h, with 0.1 mM A/O as printed): 22% | Maximum increase in mitophagy compared to baseline (SH-SY5Y mito-QC cells; 1 µM, 72 h, with 0.1 mM A/O as printed): 54% | Mitophagy (mito-QC) (SH-SY5Y mito-QC cells; 72 h in combination with sub-maximal A/O): significantly potentiates mitophagy induction; also recorded: concentration-dependent increase in mitophagy | IC50 (USP2; Supplementary Fig. 6a, read-out: Selectivity vs DUBs (IC50), USP2): 24.9 µM | IC50 (USP2; USP2, read-out: IC50): 24.9 µM | IC50 (USP6): 96.3 µM | IC50 (USP28): 106 µM | IC50 (USP22): 147 µM | IC50 (USP36 CD): 157 µM | IC50 (USP19): 278 µM | IC50 (USP11): 291 µM | IC50 (USP8): > 300 µM | IC50 (USPL1): > 300 µM | IC50 (MINDY3): > 300 µM | IC50 (USP24): > 300 µM | IC50 (VCPIP FL): > 300 µM | IC50 (CYLD): > 300 µM | IC50 (SENP2 CD): > 300 µM | IC50 (UchL5): > 300 µM | IC50 (USP4): > 300 µM | IC50 (USP35): > 300 µM | IC50 (USP46/UAF1): > 300 µM | IC50 (SENP1 CD): > 300 µM | IC50 (OTUB2): > 300 µM | IC50 (MINDY2): > 300 µM | IC50 (OTUD3 CD): > 300 µM | IC50 (Trabid): > 300 µM | IC50 (SENP6): > 300 µM

Reference: article PMC10643470, “Knockout or inhibition of USP30 protects dopaminergic neurons in a Parkinson’s disease mouse model” (Nature Communications, 2023)
